Reference: publication PMC10468298, “Umami taste perception and preferences of the domestic cat (Felis catus), an obligate carnivore” (Chemical Senses, 2023)
Like-named read-outs stand apart in the source and are kept apart here.

Columns and labels:
cats [1] = test: 2-bottle taste choice test, cat water panel, 18-h exposure; format: in vivo, domestic cat (Felis catus)
Description: The minimum panel size was n = 14, but only for one study with 80 mM MSG; in all other cases, the minimum panel size was n = 21. The maximum panel size was n = 24. […] For those cases, we have also reported the number of unique cats, as some cats were present in more than one study. All cats on the panel had previously been habituated and screened for suitability to perform this type of study. […] The cats were re-homed once they completed their tenure at the Waltham Petcare Science Institute, as per standard Waltham practice.
Solutions were made with deionized water (Purite, UK). […] In some cases, salts were purchased instead of the pure compound due to solubility, stability, or availability. For all the solutions, the pH range spanned approximately 5–8.
Choice tests for the taste compound solutions at specific concentrations were run over an 18-h period using a 2-bottle testing apparatus. […] All animal studies conformed with the Mars Animal Research Policy (www.Mars.com) and were approved by the Waltham Animal Welfare and Ethical Review Body.
Using a bespoke statistical analysis toolkit, based on R software (R Foundation, Vienna, Austria), a mixed model analysis was performed on the difference in intake (g) between water solutions, including cat (random) as a factor where appropriate. This was used to test the mean intake difference versus 0, i.e. no difference, at a 5% significance level. The mean difference in intake was reported with a 95% confidence interval. Any data errors (e.g. following manual error such as solution spillage, overflow) were removed from the final data set for analysis.

cats [2] = test: Taste choice test, cat water panel, 1-hr exposure; format: in vivo, domestic cat (Felis catus)
Description: All taste choice tests with 1-hr exposure period were run as outlined in the Materials and Methods, with the following differences. The minimum panel size was n = 24 and the maximum panel size was n = 25. […] The cats were water-restricted for 1-hr prior to the 1-hr water exposure period, with their first meal given in the last 20-min of the water restriction. 50 mL of each test solution was offered to the cats in round water bowls with a maximum capacity 150 mL (Flyte So Fancy, UK), which were held in bespoke bowl holders (TECHNIK – A Division of Syspal Ltd., UK).

cat Tas1r1-Tas1r3 [3] = target: T1, cat Tas1r1-Tas1r3 (Felis catus, UniProt A0ABI7Z2I4); test: Calcium mobilization assay (FLIPR) in HEK293T cells expressing cat Tas1r1-Tas1r3 and mGα15i1; details: for Activity as agonist or enhancer of the cat umami receptor: alone and with 0.2 mM IMP
Description: Cat Tas1r1 and cat Tas1r3 were also stably transfected, but the GeneSwitch system (Invitrogen) was used, resulting in expression which had to be induced by adding 0.1 nM mifepristone to the cells 48 h prior to the experiment. […] Expression constructs were transfected into the HEK293T cell line using Lipofectamine 2000 according to the manufacturer’s recommendations. […] The cell line was maintained in Dulbecco’s MEM High-Glucose supplemented with Glutamax-I (Gibco) and with 10% dialyzed fetal bovine serum, 1% Penicillin/Streptomycin, 100 µg/mL G418, 100 µg/mL Hygromycin, 10 µg/mL Zeocin, 2.5 µg/mL Blasticidin, and 0.5 µg/mL Puromycin.
(§1) These and other test compounds were stored at −20 °C and freshly prepared in the assay buffer on the day of the experiments. […] For the functional expression work, the solubility of amino acids was improved by sonication.
The calcium mobilization experiments were performed using a FLIPR Tetra (Molecular Devices). […] Twenty-four hours later, 0.1 nM mifepristone was added to each well to induce expression of cat Tas1r1 and cat Tas1r3. […] Forty-eight hours after induction with mifepristone, the medium was removed from the cells and 20 μL loading buffer (Tyrode’s buffer + 2 μM Fluo4 AM + 100 μM probenecid) was added, and the plate was incubated for 40 min at 37 °C and then transferred for another 20 min at room temperature. The cells were then washed two times with Tyrode’s buffer using an automated plate washer (Biotek) and incubated for 20 min at room temperature in the dark. The cells were then washed a further two times before being transferred to the FLIPR Tetra.
Concentration–response curves, each with 8 concentration points, were established by plotting signal amplitudes versus agonist concentration. The half maximal effective concentrations (EC50) were identified by nonlinear regression using a variable slope model with the equation Y = Bottom + (X^Hillslope) × (Top-Bottom)/(X^HillSlope + EC50^HillSlope), where Y is the response, and X is the agonist concentration, Top and Bottom are the plateaus in the same units as Y and HillSlope is the Slope factor or Hill slope. All calculations and plots were done using GraphPad Prism 8 (GraphPad Software, CA). […] In these cases, the EC50 was noted as being higher than the maximum concentration used in the assay.

cat Tas1r1-Tas1r3 [4] = target: T1, cat Tas1r1-Tas1r3; parameters: method as in Toda et al. 2021; details: ref Toda et al. 2021, cited from earlier work; for Activation of cat Tas1r1-Tas1r3: tested alone
cats [5] = system: cats; parameters: method as in Beauchamp et al. 1977; details: 10, 20, 40 and 80 mM versus water, 1-h; ref Beauchamp et al. 1977; cited from earlier work
cat Tas1r1 VFT = system: cat Tas1r1 VFT; parameters: method as in Belloir et al. 2017; details: intrinsic tryptophan fluorescence; ref Belloir et al. 2017; cited from earlier work
cats [6] = details: cited from earlier work; for Behavioral response of cats to the solutions: acidic solutions, ref Beauchamp et al. 1977, McGrane et al. 2013
cats [7] = system: cats; parameters: method as in White and Boudreau 1975; details: 0.5, 5.0 and 50.0 mM in 50 mM saline versus 50 mM saline, 24-h; ref White and Boudreau 1975; cited from earlier work
[8] = Solubility of amino acids in assay buffer / water; details: Tyrode's buffer pH 7.4, sonication
Description: as §1

[9] = amino acid 25 mM versus L-Serine 25 mM
[10] = amino acid 25 mM versus L-Tryptophan 25 mM
[11] = amino acid 25 mM versus L-Asparagine 25 mM

T1 sequence (A0ABI7Z2I4 entry or part of it): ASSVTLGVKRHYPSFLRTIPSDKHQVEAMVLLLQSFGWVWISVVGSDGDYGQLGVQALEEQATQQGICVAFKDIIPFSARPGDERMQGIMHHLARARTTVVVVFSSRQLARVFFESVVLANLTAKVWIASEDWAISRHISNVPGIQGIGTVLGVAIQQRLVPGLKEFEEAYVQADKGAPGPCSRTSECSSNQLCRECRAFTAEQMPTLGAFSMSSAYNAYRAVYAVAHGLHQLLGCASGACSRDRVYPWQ
T1 sequence (Q49KI5 25-865, further chain): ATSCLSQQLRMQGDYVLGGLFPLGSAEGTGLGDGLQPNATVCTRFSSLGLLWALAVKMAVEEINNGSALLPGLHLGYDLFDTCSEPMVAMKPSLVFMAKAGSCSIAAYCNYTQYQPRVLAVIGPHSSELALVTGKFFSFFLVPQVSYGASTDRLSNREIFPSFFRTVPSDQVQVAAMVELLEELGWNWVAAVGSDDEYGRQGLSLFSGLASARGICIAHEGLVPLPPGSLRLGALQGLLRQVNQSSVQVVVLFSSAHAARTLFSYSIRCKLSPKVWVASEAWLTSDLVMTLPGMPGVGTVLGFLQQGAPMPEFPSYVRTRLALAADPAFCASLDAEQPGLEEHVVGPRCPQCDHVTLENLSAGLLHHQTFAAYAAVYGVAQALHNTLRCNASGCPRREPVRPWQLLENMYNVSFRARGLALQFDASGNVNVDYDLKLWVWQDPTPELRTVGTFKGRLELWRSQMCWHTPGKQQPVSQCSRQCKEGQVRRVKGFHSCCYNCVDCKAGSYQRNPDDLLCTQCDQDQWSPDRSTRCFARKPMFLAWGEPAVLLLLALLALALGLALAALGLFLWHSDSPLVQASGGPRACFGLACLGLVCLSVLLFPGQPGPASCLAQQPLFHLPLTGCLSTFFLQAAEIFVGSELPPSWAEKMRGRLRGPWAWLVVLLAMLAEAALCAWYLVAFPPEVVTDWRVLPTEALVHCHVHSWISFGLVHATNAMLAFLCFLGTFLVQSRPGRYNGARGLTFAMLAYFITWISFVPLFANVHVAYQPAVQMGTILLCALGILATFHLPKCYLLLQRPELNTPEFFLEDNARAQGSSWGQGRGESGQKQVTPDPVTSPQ

SMILES: Nc1ncnc2c1ncn2[C@@H]1O[C@H](COP(=O)(O)O)[C@@H](O)[C@H]1O [AMP, Adenosine 5ʹ-monophosphate]
- Intake diff. (cats [1]; nucleotide 5 mM versus water): 25.4 g
- Intake diff. (cats [2]; nucleotide 5 mM versus water): 20.6 g

SMILES: Nc1ccn([C@@H]2O[C@H](COP(=O)(O)O)[C@@H](O)[C@H]2O)c(=O)n1 [CMP, Cytidine 5ʹ-monophosphate]
- Intake diff. (cats [1]; nucleotide 5 mM versus water): 69.5 g

SMILES: Nc1nc2c(ncn2[C@@H]2O[C@H](COP(=O)(O)O)[C@@H](O)[C@H]2O)c(=O)[nH]1 [GMP, Guanosine 5ʹ-monophosphate]
- EC50 (cat Tas1r1-Tas1r3 [3]): 0.32 mM
- Concentration at which the assay started to respond (cat Tas1r1-Tas1r3 [3]; nucleotide alone): around 0.1 mM
- Intake diff. (cats [1]; nucleotide 5 mM versus water): 78.8 g
- Concentration at which the assay started to respond (cat Tas1r1-Tas1r3 [4]; rat Gα15 chimera): around 0.01 mM
- Activation of cat Tas1r1-Tas1r3 (cat Tas1r1-Tas1r3 [4]): strongly activated

SMILES: NCC(=O)O [Glycine]
- Intake diff. (cats [1]; amino acid 25 mM versus water): 20.8 g
- Intake diff. (cats [2]; amino acid 25 mM versus water): 9.1 g
- Behavioral response of cats (cats [5]): indifferent

SMILES: C[C@H](N)C(=O)O [L-Alanine, reference compound]
- EC50 (cat Tas1r1-Tas1r3 [3]): 15.5 mM
- Intake diff. (cats [1]; amino acid 25 mM versus water): 30.5 g
- Ligand binding to cat Tas1r1 VFT (conformational change) (cat Tas1r1 VFT): active
- Intake diff. (cats [2]; amino acid 25 mM versus water): 16.9 g
- Behavioral response of cats (cats [5]): may be preferred to water

SMILES: N=C(N)NCCC[C@H](N)C(=O)O [L-Arginine]
- Ligand binding to cat Tas1r1 VFT (conformational change) (cat Tas1r1 VFT): active

SMILES: NC(=O)C[C@H](N)C(=O)O [L-Asparagine]
- EC50 (cat Tas1r1-Tas1r3 [3]; read-out: wIMP EC50, L-amino acid with 0.2 mM IMP): 15.7 mM
- Intake diff. (cats [1]; [9]): 12.0 g
- Intake diff. (cats [1]; [10]): -20.9 g
- Intake diff. (cats [1]; amino acid 25 mM versus water): 35.9 g

SMILES: N[C@@H](CC(=O)O)C(=O)O [L-Aspartic acid]
- Activity as agonist or enhancer of the cat umami receptor (cat Tas1r1-Tas1r3 [3]): did not respond
- Behavioral response of cats to the solutions (cats [6]): avoided

SMILES: N[C@@H](CS)C(=O)O [L-Cysteine]
- EC50 (cat Tas1r1-Tas1r3 [3]): 13.1 mM
- Intake diff. (cats [1]; amino acid 25 mM versus water): 48.3 g
- Ligand binding to cat Tas1r1 VFT (conformational change) (cat Tas1r1 VFT): inactive
- Intake diff. (cats [2]; amino acid 25 mM versus water): 27.9 g

SMILES: N[C@@H](CCC(=O)O)C(=O)O [L-Glutamic acid]
- Activity as agonist or enhancer of the cat umami receptor (cat Tas1r1-Tas1r3 [3]): did not respond
- Behavioral response of cats to the solutions (cats [6]): avoided
- Activation of cat Tas1r1-Tas1r3 (cat Tas1r1-Tas1r3 [4]): inactive alone
- Behavioral response of cats (cats [5]): avoided

SMILES: N[C@@H](Cc1c[nH]cn1)C(=O)O [L-Histidine]
- Behavioral response of cats (cats [7]): preferred
- EC50 (cat Tas1r1-Tas1r3 [3]): 9.71 mM
- Behavioral preference of cats (cats [6]; 100 mM, ref McGrane et al. 2013): significant behavioral preference
- Intake diff. (cats [1]; [11]): 77.0 g
- Intake diff. (cats [1]; [9]): 91.5 g
- Intake diff. (cats [1]; [10]): 97.0 g
- Intake diff. (cats [1]; amino acid 25 mM versus water): 43.7 g
- Ligand binding to cat Tas1r1 VFT (conformational change) (cat Tas1r1 VFT): active

SMILES: CC[C@H](C)[C@H](N)C(=O)O [L-Isoleucine]
- Ligand binding to cat Tas1r1 VFT (conformational change) (cat Tas1r1 VFT): active

SMILES: CC(C)C[C@H](N)C(=O)O [L-Leucine]
- EC50 (cat Tas1r1-Tas1r3 [3]): 31.7 mM
- Intake diff. (cats [1]; amino acid 25 mM versus water): 36.6 g
- Intake diff. (cats [2]; amino acid 25 mM versus water): 22.5 g

SMILES: CSCC[C@H](N)C(=O)O [L-Methionine]
- EC50 (cat Tas1r1-Tas1r3 [3]): > 30 mM
- Intake diff. (cats [1]; amino acid 25 mM versus water): 35.8 g

SMILES: N[C@@H](Cc1ccccc1)C(=O)O [L-Phenylalanine]
- Intake diff. (cats [1]; amino acid 25 mM versus water): 34.5 g
- Intake diff. (cats [2]; amino acid 25 mM versus water): 19.4 g

SMILES: N[C@@H](CO)C(=O)O [L-Serine]
- EC50 (cat Tas1r1-Tas1r3 [3]): 14.1 mM
- Intake diff. (cats [1]; amino acid 25 mM versus water): 25.3 g
- Intake diff. (cats [2]; amino acid 25 mM versus water): 18.0 g

SMILES: N[C@@H](Cc1c[nH]c2ccccc12)C(=O)O [L-Tryptophan]
- Behavioral response of cats (cats [7]): avoided
- EC50 (cat Tas1r1-Tas1r3 [3]): 6.32 mM
- Intake diff. (cats [1]; [11]): 20.9 g
- Intake diff. (cats [1]; [9]): -11.6 g
- Intake diff. (cats [1]; amino acid 25 mM versus water): 8.4 g
- Intake diff. (cats [2]; amino acid 25 mM versus water): 10.0 g
- Solubility in assay buffer [8]: insoluble at 60 mM

SMILES: N[C@@H](Cc1ccc(O)cc1)C(=O)O [L-Tyrosine]
- EC50 (cat Tas1r1-Tas1r3 [3]): 22.2 mM
- Intake diff. (cats [1]; amino acid 2.5 mM versus water): -1.8 g

SMILES: N[C@@H](CCC(=O)O)C(=O)[O-].[Na+] [MSG, monosodium glutamate]
- Intake diff. (cats [1]; MSG 20 mM versus water): 22.2 g
- Intake diff. (cats [1]; MSG 80 mM versus water): -7.9 g

SMILES: NCCS(=O)(=O)O [Taurine]
- Activity as agonist or enhancer of the cat umami receptor (cat Tas1r1-Tas1r3 [3]): inactive

SMILES: O=c1ccn([C@@H]2O[C@H](COP(=O)(O)O)[C@@H](O)[C@H]2O)c(=O)[nH]1 [UMP, Uridine 5ʹ-monophosphate]
- Intake diff. (cats [1]; nucleotide 5 mM versus water): 67.0 g

SMILES: O=c1[nH]c(=O)c2ncn([C@@H]3O[C@H](COP(=O)(O)O)[C@@H](O)[C@H]3O)c2[nH]1 [XMP, Xanthosine 5ʹ-monophosphate]
- EC50 (cat Tas1r1-Tas1r3 [3]): 0.48 mM
